{"source": "paper PMC6138237", "about": "“Machine intelligence decrypts β-lapachone as an allosteric 5-lipoxygenase inhibitor” (Chemical Science, 2018)", "key": {"[1]": {"system": "HL-60 cells", "assay": "HL-60 cell viability assay (Alamar Blue, 48 hours)", "conditions": "Homo sapiens, HL-60, 48 h"}, "[2]": {"target": "ROCK1 (Homo sapiens, UniProt Q13464)", "sequence (Q13464 whole entry)": "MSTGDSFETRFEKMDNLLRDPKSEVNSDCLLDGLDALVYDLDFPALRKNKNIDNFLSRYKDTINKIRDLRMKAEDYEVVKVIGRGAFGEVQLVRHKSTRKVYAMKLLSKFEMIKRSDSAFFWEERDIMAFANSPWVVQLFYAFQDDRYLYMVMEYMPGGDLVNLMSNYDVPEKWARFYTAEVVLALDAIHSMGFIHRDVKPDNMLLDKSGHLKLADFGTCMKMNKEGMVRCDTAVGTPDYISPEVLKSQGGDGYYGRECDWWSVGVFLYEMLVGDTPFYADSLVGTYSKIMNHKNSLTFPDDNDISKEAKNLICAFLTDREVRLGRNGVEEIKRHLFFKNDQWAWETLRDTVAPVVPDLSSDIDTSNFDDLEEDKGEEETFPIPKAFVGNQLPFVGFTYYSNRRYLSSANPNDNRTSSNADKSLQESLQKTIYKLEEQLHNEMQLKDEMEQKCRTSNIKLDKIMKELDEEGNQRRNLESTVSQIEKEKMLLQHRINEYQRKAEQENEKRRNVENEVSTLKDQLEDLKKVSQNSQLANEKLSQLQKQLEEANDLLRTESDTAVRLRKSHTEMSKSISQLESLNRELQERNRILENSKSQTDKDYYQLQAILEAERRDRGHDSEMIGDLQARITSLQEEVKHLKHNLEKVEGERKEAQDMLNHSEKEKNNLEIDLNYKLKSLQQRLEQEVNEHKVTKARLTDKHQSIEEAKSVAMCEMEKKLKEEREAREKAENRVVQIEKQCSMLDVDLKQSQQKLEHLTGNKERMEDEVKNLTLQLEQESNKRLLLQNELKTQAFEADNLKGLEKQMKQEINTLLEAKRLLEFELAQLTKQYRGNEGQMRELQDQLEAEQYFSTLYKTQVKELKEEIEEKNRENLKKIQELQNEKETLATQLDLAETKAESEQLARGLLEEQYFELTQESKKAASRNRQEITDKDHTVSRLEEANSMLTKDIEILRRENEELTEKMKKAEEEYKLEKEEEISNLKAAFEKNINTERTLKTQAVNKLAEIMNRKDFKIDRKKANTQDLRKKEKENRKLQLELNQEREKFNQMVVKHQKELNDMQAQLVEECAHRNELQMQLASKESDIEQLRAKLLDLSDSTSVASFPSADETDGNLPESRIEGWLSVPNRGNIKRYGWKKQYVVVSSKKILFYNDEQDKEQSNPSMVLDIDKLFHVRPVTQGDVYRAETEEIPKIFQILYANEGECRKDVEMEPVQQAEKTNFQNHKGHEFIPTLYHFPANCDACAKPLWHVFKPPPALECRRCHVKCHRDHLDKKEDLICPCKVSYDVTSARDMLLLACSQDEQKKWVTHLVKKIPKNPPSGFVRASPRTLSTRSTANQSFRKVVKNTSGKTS", "assay": "ExpresS Diversity Kinase Profile, Cerep (LANCE): ROCK1", "type": "biochemical"}, "[3]": {"assay": "Dynamic light scattering (colloidal aggregation)", "type": "physicochemical", "conditions": "for Count rate (kcps): 25 °C"}, "[4]": {"target": "TRPV1 (Homo sapiens, UniProt Q8NER1)", "sequence (Q8NER1 whole entry)": "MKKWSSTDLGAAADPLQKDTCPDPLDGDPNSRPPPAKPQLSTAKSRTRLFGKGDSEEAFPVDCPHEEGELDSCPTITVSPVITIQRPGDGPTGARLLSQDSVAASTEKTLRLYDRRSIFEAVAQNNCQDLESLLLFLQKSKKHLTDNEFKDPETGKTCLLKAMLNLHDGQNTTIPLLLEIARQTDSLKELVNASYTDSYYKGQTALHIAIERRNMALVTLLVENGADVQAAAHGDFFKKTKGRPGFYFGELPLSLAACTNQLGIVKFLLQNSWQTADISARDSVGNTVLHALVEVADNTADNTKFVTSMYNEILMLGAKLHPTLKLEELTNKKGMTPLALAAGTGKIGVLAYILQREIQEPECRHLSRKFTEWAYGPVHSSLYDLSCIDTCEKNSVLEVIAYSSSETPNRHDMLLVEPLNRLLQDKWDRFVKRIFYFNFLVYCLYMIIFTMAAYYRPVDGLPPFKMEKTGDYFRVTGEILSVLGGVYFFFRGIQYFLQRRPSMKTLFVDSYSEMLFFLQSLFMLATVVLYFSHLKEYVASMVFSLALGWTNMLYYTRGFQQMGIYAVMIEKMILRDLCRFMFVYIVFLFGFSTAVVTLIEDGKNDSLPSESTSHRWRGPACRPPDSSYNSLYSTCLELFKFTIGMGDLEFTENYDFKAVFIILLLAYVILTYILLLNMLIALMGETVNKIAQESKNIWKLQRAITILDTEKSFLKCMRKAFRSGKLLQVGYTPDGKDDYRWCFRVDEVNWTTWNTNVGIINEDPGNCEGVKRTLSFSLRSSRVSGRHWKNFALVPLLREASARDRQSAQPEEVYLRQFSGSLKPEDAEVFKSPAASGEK", "assay": "TRPV1 functional antagonist assay, Cerep (capsaicin 30 nM)", "type": "cell-based"}, "[5]": {"target": "EGFR (Homo sapiens, UniProt P00533)", "sequence (P00533 25-1210)": "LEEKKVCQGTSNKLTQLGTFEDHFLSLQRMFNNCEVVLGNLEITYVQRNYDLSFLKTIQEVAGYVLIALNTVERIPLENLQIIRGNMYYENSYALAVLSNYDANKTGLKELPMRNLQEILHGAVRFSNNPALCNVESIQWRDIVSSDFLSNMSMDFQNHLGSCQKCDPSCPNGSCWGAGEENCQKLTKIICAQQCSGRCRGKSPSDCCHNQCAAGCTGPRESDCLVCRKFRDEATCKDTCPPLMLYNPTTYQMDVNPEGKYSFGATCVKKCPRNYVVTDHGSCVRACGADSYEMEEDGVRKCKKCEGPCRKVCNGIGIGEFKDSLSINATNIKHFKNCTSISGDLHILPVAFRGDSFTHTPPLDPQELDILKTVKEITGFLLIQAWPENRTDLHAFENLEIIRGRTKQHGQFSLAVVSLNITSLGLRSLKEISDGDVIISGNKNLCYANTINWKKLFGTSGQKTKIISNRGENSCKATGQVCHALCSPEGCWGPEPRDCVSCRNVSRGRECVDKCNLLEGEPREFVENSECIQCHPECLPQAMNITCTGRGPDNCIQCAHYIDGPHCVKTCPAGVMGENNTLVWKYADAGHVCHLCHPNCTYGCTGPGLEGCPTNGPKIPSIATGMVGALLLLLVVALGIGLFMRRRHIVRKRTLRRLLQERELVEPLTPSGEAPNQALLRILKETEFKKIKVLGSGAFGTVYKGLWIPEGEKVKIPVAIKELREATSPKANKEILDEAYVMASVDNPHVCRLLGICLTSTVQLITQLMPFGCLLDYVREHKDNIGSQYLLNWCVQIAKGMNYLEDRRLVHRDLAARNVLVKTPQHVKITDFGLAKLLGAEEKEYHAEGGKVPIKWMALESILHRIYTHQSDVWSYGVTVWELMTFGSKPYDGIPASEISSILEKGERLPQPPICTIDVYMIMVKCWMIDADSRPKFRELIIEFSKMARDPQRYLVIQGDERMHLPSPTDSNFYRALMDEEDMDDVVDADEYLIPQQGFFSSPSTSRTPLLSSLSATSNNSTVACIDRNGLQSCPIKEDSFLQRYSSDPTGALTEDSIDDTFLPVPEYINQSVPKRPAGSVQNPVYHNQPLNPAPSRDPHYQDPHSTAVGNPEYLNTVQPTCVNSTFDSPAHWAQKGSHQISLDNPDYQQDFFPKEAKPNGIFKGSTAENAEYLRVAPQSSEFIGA", "assay": "ExpresS Diversity Kinase Profile, Cerep (LANCE): EGFR", "type": "biochemical"}, "[6]": {"target": "Lck (Homo sapiens, UniProt P06239)", "sequence (P06239 whole entry)": "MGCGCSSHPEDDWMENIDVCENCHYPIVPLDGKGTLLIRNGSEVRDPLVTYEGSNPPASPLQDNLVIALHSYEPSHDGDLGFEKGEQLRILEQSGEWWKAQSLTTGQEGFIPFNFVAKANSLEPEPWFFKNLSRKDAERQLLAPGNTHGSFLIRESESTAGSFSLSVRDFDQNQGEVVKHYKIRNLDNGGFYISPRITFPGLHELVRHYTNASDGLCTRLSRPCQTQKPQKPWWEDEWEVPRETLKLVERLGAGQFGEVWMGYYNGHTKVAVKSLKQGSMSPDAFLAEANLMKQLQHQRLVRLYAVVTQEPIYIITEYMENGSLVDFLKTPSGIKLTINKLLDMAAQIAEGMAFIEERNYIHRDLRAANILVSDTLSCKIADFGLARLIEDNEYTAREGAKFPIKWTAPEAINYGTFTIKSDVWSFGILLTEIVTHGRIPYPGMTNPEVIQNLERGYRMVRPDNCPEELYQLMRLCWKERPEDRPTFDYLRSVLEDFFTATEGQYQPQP", "assay": "ExpresS Diversity Kinase Profile, Cerep (LANCE): Lck", "type": "biochemical"}, "[7]": {"target": "T1, 5-LO (Homo sapiens, UniProt P09917)", "T1 sequence (P09917 1-674)": "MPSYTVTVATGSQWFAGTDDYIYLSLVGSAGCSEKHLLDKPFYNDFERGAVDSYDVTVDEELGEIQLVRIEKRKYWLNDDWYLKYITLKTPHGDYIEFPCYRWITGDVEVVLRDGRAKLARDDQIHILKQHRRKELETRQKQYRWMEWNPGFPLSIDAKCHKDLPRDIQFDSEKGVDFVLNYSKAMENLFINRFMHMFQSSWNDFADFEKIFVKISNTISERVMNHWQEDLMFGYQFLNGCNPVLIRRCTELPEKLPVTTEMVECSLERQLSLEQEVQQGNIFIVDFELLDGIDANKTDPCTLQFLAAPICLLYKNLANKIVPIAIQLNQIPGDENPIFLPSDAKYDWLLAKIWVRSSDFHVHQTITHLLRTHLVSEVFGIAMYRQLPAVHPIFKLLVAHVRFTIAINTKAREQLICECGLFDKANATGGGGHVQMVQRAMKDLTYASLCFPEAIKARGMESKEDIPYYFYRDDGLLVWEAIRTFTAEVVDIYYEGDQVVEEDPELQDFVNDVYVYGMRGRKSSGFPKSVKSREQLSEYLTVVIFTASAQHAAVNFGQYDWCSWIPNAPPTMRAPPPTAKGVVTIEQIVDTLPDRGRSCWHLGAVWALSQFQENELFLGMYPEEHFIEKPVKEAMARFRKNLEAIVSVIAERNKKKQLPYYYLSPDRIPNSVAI", "assay": "5-LO product formation in neutrophil homogenates"}, "[8]": {"target": "T2, IKKα (Homo sapiens, UniProt O15111)", "T2 sequence (O15111 1-745)": "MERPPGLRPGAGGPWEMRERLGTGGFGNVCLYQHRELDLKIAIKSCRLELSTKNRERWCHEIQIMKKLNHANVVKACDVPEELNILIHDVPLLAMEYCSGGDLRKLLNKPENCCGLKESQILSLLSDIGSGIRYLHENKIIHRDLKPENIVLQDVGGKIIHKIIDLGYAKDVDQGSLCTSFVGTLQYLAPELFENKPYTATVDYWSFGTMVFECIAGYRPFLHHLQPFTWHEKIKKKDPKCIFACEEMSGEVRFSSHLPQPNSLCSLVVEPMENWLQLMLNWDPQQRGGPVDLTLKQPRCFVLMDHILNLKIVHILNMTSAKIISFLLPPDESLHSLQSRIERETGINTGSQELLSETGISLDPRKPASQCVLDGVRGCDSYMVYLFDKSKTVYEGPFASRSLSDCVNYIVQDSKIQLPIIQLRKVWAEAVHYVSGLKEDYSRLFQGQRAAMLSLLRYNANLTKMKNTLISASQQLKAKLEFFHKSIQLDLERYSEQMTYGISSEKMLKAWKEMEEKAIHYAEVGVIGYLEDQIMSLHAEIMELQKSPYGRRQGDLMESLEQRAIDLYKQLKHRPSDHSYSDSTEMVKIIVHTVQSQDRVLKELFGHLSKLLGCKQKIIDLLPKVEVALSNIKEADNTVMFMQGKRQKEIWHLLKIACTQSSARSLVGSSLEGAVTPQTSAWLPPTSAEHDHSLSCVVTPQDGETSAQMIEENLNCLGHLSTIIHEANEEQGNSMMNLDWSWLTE", "assay": "ExpresS Diversity Kinase Profile, Cerep (LANCE): IKKα", "type": "biochemical"}, "[9]": {"target": "SIK (Homo sapiens, UniProt P57059)", "sequence (P57059 whole entry)": "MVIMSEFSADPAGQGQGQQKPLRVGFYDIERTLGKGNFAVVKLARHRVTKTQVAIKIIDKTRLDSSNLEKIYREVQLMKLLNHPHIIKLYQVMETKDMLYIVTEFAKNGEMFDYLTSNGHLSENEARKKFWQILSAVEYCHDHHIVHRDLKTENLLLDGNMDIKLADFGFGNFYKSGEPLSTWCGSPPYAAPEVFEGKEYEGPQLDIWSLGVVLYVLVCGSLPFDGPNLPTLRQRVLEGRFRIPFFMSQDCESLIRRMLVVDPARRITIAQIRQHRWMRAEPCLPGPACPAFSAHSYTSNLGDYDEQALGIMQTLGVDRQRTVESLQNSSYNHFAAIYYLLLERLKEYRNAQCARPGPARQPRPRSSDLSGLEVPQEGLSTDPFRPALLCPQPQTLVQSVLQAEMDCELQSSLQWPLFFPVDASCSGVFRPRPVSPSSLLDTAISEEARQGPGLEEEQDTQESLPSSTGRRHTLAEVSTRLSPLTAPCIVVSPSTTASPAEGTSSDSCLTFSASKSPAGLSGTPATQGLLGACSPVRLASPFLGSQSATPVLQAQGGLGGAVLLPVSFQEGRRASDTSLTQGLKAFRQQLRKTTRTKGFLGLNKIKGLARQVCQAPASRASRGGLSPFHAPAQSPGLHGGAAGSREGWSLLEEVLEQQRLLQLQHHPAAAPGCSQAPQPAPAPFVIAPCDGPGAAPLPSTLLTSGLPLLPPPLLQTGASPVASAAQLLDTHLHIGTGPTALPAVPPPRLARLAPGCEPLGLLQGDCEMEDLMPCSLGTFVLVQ", "assay": "ExpresS Diversity Kinase Profile, Cerep (LANCE): SIK", "type": "biochemical", "conditions": "150 µM"}, "[10]": {"target": "EP2 (Homo sapiens, UniProt P43116)", "sequence (P43116 whole entry)": "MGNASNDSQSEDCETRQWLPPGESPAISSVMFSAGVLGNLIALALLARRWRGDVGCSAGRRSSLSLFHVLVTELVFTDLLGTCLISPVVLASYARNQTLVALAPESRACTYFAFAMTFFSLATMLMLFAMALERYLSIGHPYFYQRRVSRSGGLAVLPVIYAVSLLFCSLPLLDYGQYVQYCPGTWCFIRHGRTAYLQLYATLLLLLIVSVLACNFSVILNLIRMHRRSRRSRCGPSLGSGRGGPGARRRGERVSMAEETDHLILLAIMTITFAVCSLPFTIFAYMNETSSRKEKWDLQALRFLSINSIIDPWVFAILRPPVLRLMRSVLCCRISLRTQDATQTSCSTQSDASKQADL", "assay": "EP2 functional antagonist assay, Cerep (PGE2 100 nM, cAMP)"}, "[11]": {"conditions": "Flag: Interference, read-out: % Inhibition of control values, 1st measurement"}, "[12]": {"conditions": "Flag: Interference, read-out: % Inhibition of control values, 2nd measurement"}, "[13]": {"conditions": "n = 2, Flag: Interference, read-out: % Inhibition of control values, Mean"}}, "note": "Several values for one entry are separate records, joined by “and”; a condition that tells them apart may be missing. Equal values may be shown once. Read-outs that look alike come from different tables or passages of the source."}
{"smiles": "CC1(C)CCC2=C(O1)c1ccccc1C(=O)C2=O", "note": "[β-Lapachone]", "values": [{"measurement": "IC50", "setting": "[1]; read-out: IC50 (control)", "result": 390, "unit": "nM"}, {"measurement": "IC50", "setting": "[1]; read-out: IC50 (differentiated)", "result": 180, "unit": "nM"}, {"measurement": "inhibition at 150 µM", "setting": "[2]; [11]", "result": -12.5, "unit": "%"}, {"measurement": "inhibition at 150 µM", "setting": "[2]; [12]", "result": -3.2, "unit": "%"}, {"measurement": "inhibition at 150 µM", "setting": "[2]; [13]", "result": -7.9, "unit": "%"}, {"measurement": "Count rate (kcps)", "setting": "[3]; 25 µM in H2O + 0.1% DMSO", "result": 60.7, "unit": "kcps"}, {"measurement": "Count rate (kcps)", "setting": "[3]; 50 µM in H2O + 0.1% DMSO", "result": 47.6, "unit": "kcps"}, {"measurement": "Count rate (kcps)", "setting": "[3]; 100 µM in H2O + 0.1% DMSO", "result": 136.1, "unit": "kcps"}, {"measurement": "aggregation by dynamic light scattering", "setting": "[3]; at relevant concentrations", "result": "no aggregation"}, {"measurement": "IC50", "setting": "[4]", "result": "~100", "unit": "µM"}, {"measurement": "inhibition at 150 µM", "setting": "[5]; n = 2, read-out: % Inhibition of control values, Mean", "result": 67.1, "unit": "%"}, {"measurement": "inhibition at 150 µM", "setting": "[5]; read-out: % Inhibition of control values, 1st measurement", "result": 68.5, "unit": "%"}, {"measurement": "inhibition at 150 µM", "setting": "[5]; read-out: % Inhibition of control values, 2nd measurement", "result": 65.7, "unit": "%"}, {"measurement": "inhibition at 150 µM", "setting": "[6]; [11]", "result": -32.6, "unit": "%"}, {"measurement": "inhibition at 150 µM", "setting": "[6]; [12]", "result": -37.7, "unit": "%"}, {"measurement": "inhibition at 150 µM", "setting": "[6]; [13]", "result": -35.2, "unit": "%"}, {"measurement": "IC50", "setting": "[7]; IC50 (with DTT), neutrophil homogenates with 1 mM DTT, n = 3", "result": "90 nM and 85 nM"}, {"measurement": "IC50", "setting": "[7]; IC50 (without DTT), neutrophil homogenates without DTT, n = 3", "result": 5200, "unit": "nM"}, {"measurement": "IC50", "setting": "[7]; IC50, neutrophil homogenates with 1 mM dithiothreitol", "result": 85.5, "unit": "nM"}, {"measurement": "inhibition at 150 µM", "setting": "[8]; [11]", "result": 59.5, "unit": "%"}, {"measurement": "inhibition at 150 µM", "setting": "[8]; [12]", "result": 59.4, "unit": "%"}, {"measurement": "inhibition at 150 µM", "setting": "[8]; [13]", "result": 59.5, "unit": "%"}, {"measurement": "inhibition at 150 µM", "setting": "[9]; [11]", "result": 41.8, "unit": "%"}, {"measurement": "inhibition at 150 µM", "setting": "[9]; [12]", "result": 40.3, "unit": "%"}, {"measurement": "inhibition at 150 µM", "setting": "[9]; [13]", "result": 41, "unit": "%"}, {"measurement": "IC50", "setting": "[10]", "result": "~100", "unit": "µM"}]}
